Assay results reported in US20100062012A1, “Negative Genetic Regulation of Cancer Cell Renewal in Synergy with Notch- or Numb-Specific Immunotherapy” (priority 2007, published 2010).
Marks after values point to notes of the source that are not given here.

Columns and labels:
MCF7 [1] = experiment: Flow cytometry of CSt-C markers after culture with drugs; assay type: cell-based, human
Protocol: (§1) Flow cytometery analysis. All cells were cultured with Gem at 2×IC50 of gemcitabine for 10 days. Cultured cells (2×10^5) were washed in cold-PBS followed by blocking with 20 μL of 1 mg/mL of human IgG (Sigma, Saint Louis, Mo.) for 1 hour on ice. This step was necessary to inhibit non-specific binding of immunoglobulins during staining. Cells were then triple-stained with antibodies against ESA, CD44, and CD24. Analysis was performed with Becton Dickinson FACSCalibur and Cell Quest software (Becton Dickinson). Cells were gated on ESA+ population. Expression of CD24 and CD44 was examined in gated ESA+ cells as we described (26). The population of the ESA+, CD44hi and CD24low/− cells was calculated as percent of total cells and total ESA+ cells. All cell lines were also stained with a MIC-A/B and CD133, and analyzed as above.

MIA-PaCa-2 [2] = experiment: as above; assay type: cell-based, human
Protocol: as §1

MCF7 [3] = experiment: MTT inhibition of proliferation; assay type: cell-based; conditions: Homo sapiens, 72 h
Excerpt: (§2) Inhibition of proliferation of tumor cell lines by anticancer drugs.

MIA-PaCa-2 [4] = experiment: MTT inhibition of proliferation; assay type: cell-based; conditions: Homo sapiens; MIA-PaCa-2, MTT, 72 h
Excerpt: as §2

PANC-1 = experiment: MTT inhibition of proliferation; assay type: cell-based; conditions: Homo sapiens; PANC-1, MTT, 72 h
Excerpt: as §2

MIA-PaCa-2 [5] = experiment: Flow cytometry of NKG2D ligands MIC-A/B in drug-resistant cells; assay type: cell-based, human; conditions: MIA PaCa-2, FIG. 7A
Protocol: as §1
To address the hypothesis that drug-resistant cancer cells are more sensitive to cellular immune effectors, we quantified expression of NKG2D ligands, MIC-A and -B (58, 59). ESA^+ MIA-PaCa-2 cells were analyzed for MIC-A/B. MCF7 cells were analyzed with CD44, CD24 and MIC-A/B (FIG. 7B), because almost all MCF7 cells (95% and more) expressed ESA.

MIA-PaCa-2 [6] = experiment: Flow cytometry of CSt-C markers after culture with drugs; assay type: cell-based, human; conditions: starting from 3.0×10^6 Mia-PaCa-2 cells
SKOV-3 = experiment: MTT inhibition of proliferation; assay type: cell-based, human; conditions: Homo sapiens, SK-OV-3, 72 h, SKOV-3, MTT
Excerpt: as §2

AsPC-1 = experiment: MTT inhibition of proliferation; assay type: cell-based, human; conditions: Homo sapiens, ASPC1, 72 h, AsPC-1, MTT, 72 h
Excerpt: as §2

MCF7 cells = experiment: Stimulation of MCF7 / GEMRes MCF7 by DLL4; assay type: cell-based, human
Protocol: Stimulation of GEMRes MCF7 by DLL4. GEMRes MCF7 were obtained after culture with 0.3 uM GEM for 7 weeks. MCF7 were stimulated for 24 hrs, in medium containing estradiol, fibroblast growth factor in the presence or absence of DLL4, as described (40).

[7] = test system: CD8+ T cells (TAL) from ascites of HLA-A2+ ovarian cancer patients; experiment: peptide-HLA-A2-IgG dimer staining of ovarian tumor associated lymphocytes (flow cytometry); assay type: cell-based, human; conditions: for patients with activated CD8+ Perforin+ cells expressing TCR specific for the peptide: five ovarian cancer patients
Excerpt: Lymphocyte culture. Lymphocytes were isolated by Ficoll-gradient centrifugation from heparinized ascites from HLA-A2^+ ovarian cancer patients. After separation, we cultured lymphocytes with RPMI 1640 medium with 10% FCS and 300 IU of IL-2 (Biosource Camarillo, Calif.) for one week, as we described (23,24).
We identified cells expressing high concentrations/numbers of T cell receptors (TCRs) reactive with each peptide to evaluate the role of TCR density in CTL differentiation upon in vivo stimulation with the same ligands. The TCR^+ population which usually includes cells staining with antigen-tetramers/dimers with a mean fluorescence intensity (MFI) higher than 101, was divided in three populations, one staining with antigen-pulsed HLA-A2/IgG dimers (dimers) with a MFI (TCR) between 101 and 102, and other which stained with antigen-pulsed dimers with a MFI (TCR) between 102 and 103, and other which stained with antigen-pulsed dimers with a MFI (TCR) between 103 and 104. These populations were designated as TCR^lo, TCRmed, and […], respectively, as we described (26).
T cell: peptide-HLA-A2-lgG dimer interaction. Expression of TCRs specific for peptides Notch1 (1940-1948), Notch1 (2112-2120), Numb1 (87-95), Gli1 (580-588) and AESI (128-137) was determined using HLA-A2-IgG-dimmers (BD Bioscience Pharmingen). The peptide loaded dimers were prepared as we previously described (23). Staining of lymphocyte with dimers was performed as described previously (24,27,28).
The same cells were also stained for the expression of CD8 antigen and the presence of Perforin, (effector pore forming enzyme) using specific antibodies conjugated to distinct fluorochromes than the dimers: fluorescein isothiocianate (FITC), allophycocyanin (APC) and PE. Cells reacting with the corresponding peptide-loaded dimers are designated as Notch1-1940-TCR^+, Notch1-2112-TCR^+, Numb1-87-TCR^+, and […] cells, respectively. Cells reacted with control HLA-A2-IgG dimers not loaded with peptide are designated as dNP-TCR^+ cells.

[8] = biological target: Notch receptor on MCF7 cells (human); experiment: cell-based or functional assay
[9] = MIA-PaCa-2 after culture with drug
[10] = Patient 1, TCR-density High, TAL one week in 300 IU IL-2

Chain of recombinant human Delta-like protein 4 (Q9NR61 27-524 limits assumed, stated change not applied): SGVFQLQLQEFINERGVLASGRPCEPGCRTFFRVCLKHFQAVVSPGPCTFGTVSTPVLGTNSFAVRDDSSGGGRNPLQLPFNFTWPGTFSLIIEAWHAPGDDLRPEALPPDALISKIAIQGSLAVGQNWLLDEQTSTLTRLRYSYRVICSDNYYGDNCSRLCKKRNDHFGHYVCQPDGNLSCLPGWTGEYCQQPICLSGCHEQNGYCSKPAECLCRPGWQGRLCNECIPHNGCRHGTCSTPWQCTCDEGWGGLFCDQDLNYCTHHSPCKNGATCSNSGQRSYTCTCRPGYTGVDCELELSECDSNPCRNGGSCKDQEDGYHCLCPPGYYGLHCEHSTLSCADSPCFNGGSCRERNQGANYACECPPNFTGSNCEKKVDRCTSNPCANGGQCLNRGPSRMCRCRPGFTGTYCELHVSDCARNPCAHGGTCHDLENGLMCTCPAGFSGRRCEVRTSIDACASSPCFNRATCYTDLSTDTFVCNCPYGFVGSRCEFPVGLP

O=c1[nH]cc(F)c(=O)[nH]1 [5-FU, 5-fluorouracil]
change of CSt-like-C population (MCF7 [1]; MCF7): increased | cells harvested (MCF7 [1]; after culture of 3×10^6 MCF-7 cells): 1.6 ×10^6 | change of CSt-C (CSt-like-C) population (MIA-PaCa-2 [2]; MIA-PaCa-2): increased | % CD44hi CD24- in ESA+ cells (MIA-PaCa-2 [2]; [9]): 0.2% | % CD44hi CD24hi in ESA+ cells (MIA-PaCa-2 [2]; [9]): 7.1% | % CD44hi CD24low in ESA+ cells (MIA-PaCa-2 [2]; [9]): 19.8% | % CSt-like-C (MIA-PaCa-2 [2]; [9]): 16.4% | % ESA+ (MIA-PaCa-2 [2]; [9]): 83.0% | IC50 (MCF7 [3]): 1.3 µM | IC50 (MIA-PaCa-2 [4]): 3.7 µM | IC50 (PANC-1): 0.8 µM | number of cells expressing MICA and MICB in drug-resistant cells (MIA-PaCa-2 [5]): increased | cells harvested (MIA-PaCa-2 [6]): 3.4 ×10^6 cells | IC50 (SKOV-3): 3.6 µM | IC50 (AsPC-1): 15.2 µM

DLL4: recombinant human Delta-like protein 4, soluble Notch ligand
expansion of CD44+ CD24low cells compared with medium (MCF7 cells; DLL4-activation of GEMRes cells): 2-3 fold | CD44hi CD24hi (% of cells) (MCF7 cells; MCF7): 36.4% | CD44hi CD24hi (cell number) (MCF7 cells; MCF7): 6.84 | CD44hi CD24low (% of cells) (MCF7 cells; MCF7): (3.5%) | CD44hi CD24low (cell number) (MCF7 cells; MCF7): 0.66 × 10^6 | ratio CD44hi CD24hi to CD44hi CD24low (MCF7 cells; MCF7): 10.4 | Stimulation Index (MCF7 cells; MCF7, harvested/seeded): 6.27 | Harvested cells (MCF7 cells; MCF7, seeded 3.0 x 10^6): *18.80 10^6

LPL TPLPVGL [AES1]
% TCR+ cells for HLA-A2: peptide [7, 10]: 0.19% | % TCR+ cells for HLA-A2: peptide ([7]; Patient 1, TCR-density Low): 0.23% | % TCR+ cells for HLA-A2: peptide ([7]; Patient 1, TCR-density Med): 0.23%

RLLDEYNLV (listed as Homo sapiens) [Notch1-2112]
% TCR+ cells for HLA-A2: peptide [7, 10]: 0.26% | % TCR+ cells for HLA-A2: peptide ([7]; Patient 1, TCR-density Low): 0.24% | % TCR+ cells for HLA-A2: peptide ([7]; Patient 1, TCR-density Med): 0.28% | % TCR+ cells for HLA-A2: peptide ([7]; Patient 2, TCR-density High): 0.17% | % TCR+ cells for HLA-A2: peptide ([7]; Patient 2, TCR-density Low): 2.09* % | % TCR+ cells for HLA-A2: peptide ([7]; Patient 2, TCR-density Med): 0.35% | % TCR+ cells for HLA-A2: peptide ([7]; Patient 3, TCR-density High): 0.08% | % TCR+ cells for HLA-A2: peptide ([7]; Patient 3, TCR-density Low): 0.43% | % TCR+ cells for HLA-A2: peptide ([7]; Patient 3, TCR-density Med): 0.28% | TCRmed cells relative to base-line NP dimers ([7]; Patient 4): 2.61 times | % TCR+ cells for HLA-A2: peptide ([7]; Patient 4, TCR-density High): 0.08% | % TCR+ cells for HLA-A2: peptide ([7]; Patient 4, TCR-density Low): 0.88% | % TCR+ cells for HLA-A2: peptide ([7]; Patient 4, TCR-density Med): 0.34* % | TCRmed cells relative to base-line control dNP ([7]; Patient 5): 1.63 times | % TCR+ cells for HLA-A2: peptide ([7]; Patient 5, TCR-density High): 0.17% | % TCR+ cells for HLA-A2: peptide ([7]; Patient 5, TCR-density Low): 2.52% | % TCR+ cells for HLA-A2: peptide ([7]; Patient 5, TCR-density Med): 0.36% | patients with activated CD8+ Perforin+ cells expressing TCR specific for the peptide [7]: two of five

RLLEASADA (listed as Homo sapiens) [Notch1-1947, used as specificity control]
% TCR+ cells for HLA-A2: peptide ([7]; Patient 2, TCR-density High): 0.10% | % TCR+ cells for HLA-A2: peptide ([7]; Patient 2, TCR-density Low): 0.99% | % TCR+ cells for HLA-A2: peptide ([7]; Patient 2, TCR-density Med): 0.32% | % TCR+ cells for HLA-A2: peptide ([7]; Patient 3, TCR-density High): 0.10% | % TCR+ cells for HLA-A2: peptide ([7]; Patient 3, TCR-density Low): 0.65% | % TCR+ cells for HLA-A2: peptide ([7]; Patient 3, TCR-density Med): 0.24% | % TCR+ cells for HLA-A2: peptide ([7]; Patient 4, TCR-density High): 0.22% | % TCR+ cells for HLA-A2: peptide ([7]; Patient 4, TCR-density Low): 0.53% | % TCR+ cells for HLA-A2: peptide ([7]; Patient 4, TCR-density Med): 0.26% | % TCR+ cells for HLA-A2: peptide ([7]; Patient 5, TCR-density High): 0.14% | % TCR+ cells for HLA-A2: peptide ([7]; Patient 5, TCR-density Low): 1.98% | % TCR+ cells for HLA-A2: peptide ([7]; Patient 5, TCR-density Med): 0.26%

VLWVSADGL (listed as Homo sapiens) [Numb1-87]
% TCR+ cells for HLA-A2: peptide [7, 10]: 0.64* % | % TCR+ cells for HLA-A2: peptide ([7]; Patient 1, TCR-density Low): 0.51% | % TCR+ cells for HLA-A2: peptide ([7]; Patient 1, TCR-density Med): 0.66* % | % TCR+ cells for HLA-A2: peptide ([7]; Patient 2, TCR-density High): 0.16% | % TCR+ cells for HLA-A2: peptide ([7]; Patient 2, TCR-density Low): 2.76* % | % TCR+ cells for HLA-A2: peptide ([7]; Patient 2, TCR-density Med): 0.46% | % TCR+ cells for HLA-A2: peptide ([7]; Patient 3, TCR-density High): 0.09% | % TCR+ cells for HLA-A2: peptide ([7]; Patient 3, TCR-density Low): 0.50% | % TCR+ cells for HLA-A2: peptide ([7]; Patient 3, TCR-density Med): 0.21% | % TCR+ cells for HLA-A2: peptide ([7]; Patient 4, TCR-density High): 0.22% | % TCR+ cells for HLA-A2: peptide ([7]; Patient 4, TCR-density Low): 0.53% | % TCR+ cells for HLA-A2: peptide ([7]; Patient 4, TCR-density Med): 0.26% | TCRhi CD8+ cells relative to cells reactive with control dNP dimers ([7]; Patient 5): 2.45 times | % TCR+ cells for HLA-A2: peptide ([7]; Patient 5, TCR-density High): 0.27* % | % TCR+ cells for HLA-A2: peptide ([7]; Patient 5, TCR-density Low): 1.84% | % TCR+ cells for HLA-A2: peptide ([7]; Patient 5, TCR-density Med): 0.27% | increase in numbers of TCRhi Perhi cells compared with Notch1-2112 dimer ([7]; TAL-1, FIG. 4): 3.3 fold | amount of Perforin in peptide-TCR+ cells ([7]; TAL-1, FIG. 4G): highest amount of Perforin | increase in numbers of TCR+ cells ([7]; TAL-2, large-size lymphocytes, FIG. 5H): 3 fold | patients with activated CD8+ Perforin+ cells expressing TCR specific for the peptide [7]: three of five

recombinant human Delta-like protein 4 (from UniProt Q9NR61 27-524) (ligand)
Harvested cells: 10^6 (MCF7, DLL4, no GEM; NT control 12.96) [8]: 1.88e+07 cells | Harvested cells: 10^6 (MCF7, DLL4 with GEM; GEM alone 1.32) [8]: 2.16e+06 cells | Stimulation Index (proliferation of MCF7 cells, DLL4, no GEM; NT control 4.32) [8]: 6.27 | Stimulation Index (proliferation of MCF7 cells, DLL4 with GEM; GEM alone 0.44) [8]: 0.72 | increase in total cell number at stimulation with DLL4 [8]: > 45%
